Patent US12612386B2, “Heteroaryl-triazole compounds as pesticides” (Bayer Aktiengesellschaft, priority 2020, dated 2026)

How the values were obtained:
Type in all cases: in vivo
[1] = test system: green peach aphid (Myzus persicae); assay: whole plant or invertebrate; conditions: 120 h
Method: Solvent: 100 parts by weight acetone
To produce a suitable preparation of active compound, 1 part by weight of active compound is mixed with the stated amount of solvent, and the concentrate is diluted with water to the desired concentration.
50 μL compound solution is filled in microtiter plates and 150 μL IPL41 insect medium (33%+15% sugar) is added to obtain a total volume of 200 μL per well. Afterwards the plates are sealed with parafilm through which a mixed population of the green peach aphid (Myzus persicae) can suck on the compound preparation.
After 5 days mortality in % is determined. 100% means all aphids have been killed and 0% means none of the aphids have been killed.
Myzus persicae—Oral Test (MYZUPE Oral)

[2] = test system: engorged adult female cattle ticks (Rhipicephalus microplus) strain Parkhurst, SP-resistant; assay: Rhipicephalus (Boophilus) microplus dip test; conditions: 100 ppm, egg deposition after 7 days
Method: Rhipicephalus (Boophilus) Microplus—Dip Test
Test animal: cattle ticks (Rhipicephalus microplus) strain Parkhurst, SP-resistant
Solvent: dimethyl sulfoxide
To produce a suitable preparation of active compound, 10 mg of active compound are dissolved in 0.5 mL solvent, and the concentrate is diluted with water to the desired concentration.
This compound solution is pipetted into tubes. 8-10 engorged, adult, female cattle ticks (Rhipicephalus microplus) are placed in perforated tubes. These tubes are immersed in the aqueous compound solution until the ticks are completely moistened. After the liquid has drained off, the ticks are transferred to a filter paper in a plastic tray and stored in a climate chamber.
After 7 days egg deposition of fertile eggs is monitored. Eggs where fertility is not visible are stored in a climate chamber till hatching after about 42 days. An efficacy of 100% means all eggs are infertile; 0% means all eggs are fertile.

[3] = test system: adult flies Musca domestica strain WHO-N; assay: Musca domestica test (MUSCDO surface treatment & contact assay); conditions: surface concentration 20 mg/m^2, 30 min exposure, 24 hours after contact, read-out: efficacy (mortality)
In short: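 Compound in acetone with 2000 ppm rapeseed oil methyl ester dried onto glazed tile; adult WHO-N strain flies exposed to surface 30 minutes. Percent mortality scored 24 hours after contact.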

C[C@H](NC(=O)c1cc(Br)cc(OC(F)(F)F)c1)c1ncnn1-c1cc(C#N)ncn1 [I-1, 3-bromo-N-{(1S)-1-[1-(6-cyanopyrimidin-4-yl)-1H-1,2,4-triazol-5-yl]ethyl}-5-(trifluoromethoxy)benzamide]
mortality at 0.16 ppm ([1]; MYZUPE oral, 0.16 ppm, 5 dat (Table 3), read-out: % Efficacy): 100%
mortality at 4 ppm ([1]; po): 100%
efficacy (infertile eggs) [2]: 100%
mortality at 20 mg/m2 [3]: 80 to 100%
